Reference: US10047081B2, “BACE1 inhibitors” (Hoffmann-La Roche Inc., priority 2015, dated 2018)
pIC50: −log10 of the molar value.

Key:
[1] = molecular target: T1, recombinant human cathepsin E (Homo sapiens, UniProt P14091); assay: Cathepsin E fluorescent substrate kinetic assay; format: biochemical; conditions: pH 4.5, substrate MR121-CKLVFFAEDW
T1 construct: purchased R&D Systems
T1 sequence (P14091 54-396): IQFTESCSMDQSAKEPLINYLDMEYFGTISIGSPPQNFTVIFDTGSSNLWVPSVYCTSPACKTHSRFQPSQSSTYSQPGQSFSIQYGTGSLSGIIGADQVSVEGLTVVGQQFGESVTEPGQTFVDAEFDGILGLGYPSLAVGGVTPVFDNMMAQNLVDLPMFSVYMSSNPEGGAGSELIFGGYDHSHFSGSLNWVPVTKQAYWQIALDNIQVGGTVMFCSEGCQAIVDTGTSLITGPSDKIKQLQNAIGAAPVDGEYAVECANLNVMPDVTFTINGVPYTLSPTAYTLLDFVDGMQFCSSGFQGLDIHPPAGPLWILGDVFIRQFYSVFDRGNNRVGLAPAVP
Source text: (§1) Cathepsin D and Cathepsin E Fluorescent Substrate Kinetic Assays
(§2) The MR121 fluorescence assays described below are based on the fact that MR121 forms a non-fluorescent ground state complex with tryptophan. In solution this formation occurs at millimolar concentrations of tryptophan. The mechanism can be used to design a generic biochemical assay for proteases. A substrate peptide is labeled at the N-terminus with tryptophan and at the C-terminus with the fluorophore MR121 (for cathepsin D the 10 amino acid peptide WTSVLMAAPC-MR121 was used; for cathepsin E, MR121-CKLVFFAEDW was used). In absence of protease activity, the substrates remain intact and the MR121 fluorescence is reduced by the high local Trp-concentration. If the substrates are cleaved by the enzymes the MR121 fluorescence is recovered.
(§3) The fluorescent substrate cathepsin D and cathepsin E kinetic assays were performed at room temperature in 384-well microtiter plates (black with clear flat bottom, non-binding surface plates from Corning) in a final volume of 51 μl. The test compounds were serially diluted in DMSO (15 concentrations, ⅓ dilution steps) and 1 μl of diluted compounds were mixed for 10 min with 40 μl of cathepsin D (from human liver, Calbiochem) diluted in assay buffer (100 mM sodium acetate, 0.05% BSA, pH 5.5; final concentration:200 nM) or with 40 μl of recombinant human cathepsin E (R&D Systems) diluted in assay buffer (100 mM sodium acetate, 0.05% BSA, pH 4.5; final concentration:0.01 nM). After addition of 10 μl of the cathepsin D substrate WTSVLMAAPC-MR121 diluted in cathepsin D assay buffer (final concentration:300 nM) or 10 μl of the cathepsin E substrate MR121-CKLVFFAEDW diluted in cathepsin E assay buffer (final concentration:300 nM), the plates were strongly shaken for 2 minutes. The enzymatic reaction was followed in a plate: vision reader (Perkin Elmer) (excitation wavelength:630 nm; emission:695 nm) for at least 30 minutes in a kinetic measurement detecting an increase of MR121 fluorescence during the reaction time. The slope in the linear range of the kinetic was calculated and the IC50 of the test compounds were determined using a four parameter equation for curve fitting.

Aβ40 in brain = assay: Lowering of Aβ40 in brain of wild-type mice; format: in vivo; conditions: brain Aβ40 as % of control (vehicle group), 30 mg/kg per os, mouse, after 4 h
Protocol: Lowering of Aβ40 in Brain of Wild-Type Mice:
Animals and Housing Conditions.
Animals were maintained in a 12/12 h light/dark cycle, with lights starting at 6 a.m., and experiments were conducted during the light phase. Animal housing and experimental procedures were in line with ethical and legal guidelines and were authorized by local veterinary authorities.
Female C57B1/6J mice were treated with a dose of 30 mg/kg of the compounds, 3-4 animals per treatment group. The test compound was dissolved in 5% EtOH, 10% Solutol, and was applied per os at 10 mL/kg. After 4 h, the animals were sacrificed and brain and plasma were collected. The brain was cut into halves and immediately frozen on dry ice. Brain was used for measurement of Aβ40 and plasma was used for determination of compound exposure. […] Brain tissue was homogenized in 2% DEA buffer in a Roche MagnaLyser (20″, 4000 rpm) and subsequently centrifuged for 1 h at 100000 g. DEA was reduced to 0.2% in 50 mM NaCl and one-half of the DEA lysate was passed over an Oasis Solid phase extraction plate (Waters; cat. no. 186000679), which had been activated with MeOH and equilibrated in dH2O (1 mL each). After washes in 10% and 30% MeOH (1 mL each), the Aβ-peptides were eluted in 0.8 mL of 2% NH4OH in 90% MeOH. The eluate was dried over a N2 flow, and the dried sample was reconstituted in 30 μL of AlphaLISA assay buffer. Aβ40 was determined by an AlphaLISA assay (Perkin-Elmer). In a white 96-well, half area microplate (Perkin-Elmer cat. no. 6005561), 20 μL of the reconstituted sample were mixed with 5 μL of biotinylated BAP-24 (specific for C-terminus of Aβ40) (Brockhaus, M.; Grunberg, J.; Rohrig, S.; Loetscher, H.; Wittenburg, N.; Baumeister, R.; Jacobsen, H.; Haass, C. Caspasemediated cleavage is not required for the activity of presenilins in amyloidogenesis and NOTCH signaling. NeuroReport 1998, 9, 1481-1486) stock=4.4 mg/mL, f.c.5.5 μg/mL), and 5 μL 252Q6 acceptor beads (252Q6 antibody, Invitrogen AMB0062) had been previously conjugated with AlphaLISA Acceptor beads (Perkin-Elmer cat. no. 6772002); final dilution 1:500). The mix was incubated for 1 h at RT in the dark. Then 20 μL of Streptavin-coated Donor Beads (Perkin-Elmer cat. no. 6760002, final dilution 1:125) were added and this final mix was incubated in the dark for another 30 min at RT before RFU was measured in an AlphaScreen Reader (Perkin-Elmer Envision 2104). The value obtained for Ap40 in the treated animals was related to the value in the vehicle group and is given in %. Alternatively a commercial ELISA was used for Aβ40 determination (Wako ELISA: (“Human/Rat β Amyloid (40) ELISA kit Wako II”; cat nr. 294-64701) following the manufacture's instruction. Also here the Aβ-lowering efficacy was calculated as percentage of the vehicle group.

[2] = molecular target: T2, cathepsin D (from human liver) (Homo sapiens, UniProt P07339); assay: Cathepsin D fluorescent substrate kinetic assay; format: biochemical; conditions: pH 5.5, substrate WTSVLMAAPC-MR121
T2 construct: cathepsin D (from human liver, Calbiochem) diluted in assay buffer; purchased Calbiochem; host or cells: human liver
T2 sequence (P07339 65-162 limits assumed): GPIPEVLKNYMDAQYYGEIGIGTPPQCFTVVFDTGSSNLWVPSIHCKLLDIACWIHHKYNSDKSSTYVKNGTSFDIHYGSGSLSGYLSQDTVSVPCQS
T2 sequence (P07339 169-412 limits assumed): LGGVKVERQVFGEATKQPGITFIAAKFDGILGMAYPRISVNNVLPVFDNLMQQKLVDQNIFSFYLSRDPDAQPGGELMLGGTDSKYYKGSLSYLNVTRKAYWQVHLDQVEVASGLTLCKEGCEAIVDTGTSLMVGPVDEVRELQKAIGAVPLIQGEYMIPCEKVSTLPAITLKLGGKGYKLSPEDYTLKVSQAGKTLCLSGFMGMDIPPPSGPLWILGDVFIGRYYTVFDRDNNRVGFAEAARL
Source text: as §1, §2, §3

## CN=[S@@]1(=O)C[C@@](C)(c2cc(-c3cc(-c4cnc(OCC(F)F)cn4)no3)ccc2F)N=C(N)C1(C)C [Example 5, (1R,3R)-5-amino-3-(5-(3-(5-(2,2-difluoroethoxy)pyrazin-2-yl)isoxazol-5-yl)-2-fluorophenyl)-3,6,6-trimethyl-1-(methylimino)-3,6-dihydro-2H-1,4-thiazine 1-oxide 2,2,2-trifluoroacetate]
[1]
  pIC50: 4.11
Aβ40 in brain
  in vivo effect: A (A = less than 60% of control @ 30 mg/kg mouse)
[2]
  pIC50: 4.54

## CN=[S@@]1(=O)C[C@@](C)(c2cc(-c3cc(-c4ncc(Cl)cn4)no3)ccc2F)N=C(N)C1(C)C [Example 6, (1R,3R)-5-amino-3-(5-(3-(5-chloropyrimidin-2-yl)isoxazol-5-yl)-2-fluorophenyl)-3,6,6-trimethyl-1-(methylimino)-3,6-dihydro-2H-1,4-thiazine 1-oxide 2,2,2-trifluoroacetate]
[1]
  pIC50: 4.10
Aβ40 in brain
  in vivo effect: A (A = less than 60% of control @ 30 mg/kg mouse)
[2]
  pIC50: 4.42

## CN=[S@@]1(=O)C[C@@](C)(c2cc(-c3cc(-c4cnc(OC)cn4)no3)ccc2F)N=C(N)C1(C)C [Example 7, (1R,3R)-5-amino-3-(2-fluoro-5-(3-(5-methoxypyrazin-2-yl)isoxazol-5-yl)phenyl)-3,6,6-trimethyl-1-(methylimino)-3,6-dihydro-2H-1,4-thiazine 1-oxide 2,2,2-trifluoroacetate]
[1]
  pIC50: 3.74
Aβ40 in brain
  in vivo effect: B (B = less than 90% of control @ 30 mg/kg mouse)
[2]
  pIC50: 4.43

## [2H]C([2H])([2H])N=[S@@]1(=O)C[C@@](C)(c2cc(-c3cc(-c4cnc(OC)cn4)no3)ccc2F)N=C(N)C1(C)C [Example 24, (1R,3R)-3-[2-fluoro-5-[3-(5-methoxypyrazin-2-yl)isoxazol-5-yl]phenyl]-3,6,6-rimethyl-1-oxo-1-(trideuteriomethylimino)-2H-1,4-thiazin-5-amine 2,2,2-trifluoroacetate]
[1]
  pIC50: 3.78
Aβ40 in brain
  in vivo effect: A (A = less than 60% of control @ 30 mg/kg mouse)
[2]
  pIC50: 4.41
